Activity calls are given as the source filed them.
Columns and labels:
cells = type: functional
[1] = Vero cell cytotoxicity, cytotoxicity control for M. tuberculosis inhibitor project, purified and synthesized samples, set 3 (AID 504684); type: functional
[2] = target: T1, ATP-dependent translocase ABCB1 (Homo sapiens, UniProt P08183); assay: ABCG2 efflux pump inhibitor potency, dose response, Ig-MXP3 cells, JC-1, flow cytometry, set 2 (AID 504566); type: functional; settings: read-out: EC50_MICROM_;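 also: flow cytometry median green fluorescence of retained JC-1 dye; potency of efflux pump inhibition measured as rising substrate retention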
T1 sequence (P08183 whole entry): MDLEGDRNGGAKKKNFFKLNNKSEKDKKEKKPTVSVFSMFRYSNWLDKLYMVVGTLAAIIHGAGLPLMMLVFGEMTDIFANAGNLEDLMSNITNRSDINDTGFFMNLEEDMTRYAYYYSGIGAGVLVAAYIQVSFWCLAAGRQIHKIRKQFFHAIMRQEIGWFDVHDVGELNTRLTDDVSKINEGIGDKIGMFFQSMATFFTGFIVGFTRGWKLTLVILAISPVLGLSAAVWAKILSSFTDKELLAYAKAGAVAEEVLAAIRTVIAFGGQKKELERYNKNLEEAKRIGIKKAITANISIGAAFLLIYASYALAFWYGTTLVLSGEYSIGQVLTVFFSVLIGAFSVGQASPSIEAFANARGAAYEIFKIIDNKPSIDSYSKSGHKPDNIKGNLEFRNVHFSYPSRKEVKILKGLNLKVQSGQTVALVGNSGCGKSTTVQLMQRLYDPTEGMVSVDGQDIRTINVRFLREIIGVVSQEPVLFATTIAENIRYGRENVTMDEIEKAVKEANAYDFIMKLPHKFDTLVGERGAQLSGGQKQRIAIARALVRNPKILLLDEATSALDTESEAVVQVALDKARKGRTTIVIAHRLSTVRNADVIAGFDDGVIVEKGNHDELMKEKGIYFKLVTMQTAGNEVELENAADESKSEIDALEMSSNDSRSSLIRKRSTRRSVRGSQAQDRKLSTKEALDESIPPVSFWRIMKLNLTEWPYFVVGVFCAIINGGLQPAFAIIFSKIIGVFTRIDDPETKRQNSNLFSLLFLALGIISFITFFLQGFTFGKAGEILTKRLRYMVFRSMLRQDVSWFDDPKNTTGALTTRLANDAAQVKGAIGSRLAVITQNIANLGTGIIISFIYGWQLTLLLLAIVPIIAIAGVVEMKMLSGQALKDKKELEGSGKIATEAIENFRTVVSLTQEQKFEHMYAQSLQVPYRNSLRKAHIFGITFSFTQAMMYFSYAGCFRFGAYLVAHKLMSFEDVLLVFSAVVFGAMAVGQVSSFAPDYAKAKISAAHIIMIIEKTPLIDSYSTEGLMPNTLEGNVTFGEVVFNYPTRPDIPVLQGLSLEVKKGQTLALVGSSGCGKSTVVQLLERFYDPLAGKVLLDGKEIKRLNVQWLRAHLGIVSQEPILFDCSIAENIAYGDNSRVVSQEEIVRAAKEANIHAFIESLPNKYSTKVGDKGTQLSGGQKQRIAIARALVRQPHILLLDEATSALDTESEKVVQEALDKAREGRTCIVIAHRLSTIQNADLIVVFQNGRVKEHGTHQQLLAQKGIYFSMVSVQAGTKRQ

[3] = target: T1, ATP-dependent translocase ABCB1; assay: ABCB1 efflux inhibitor potency, dose response, Jurkat-DNR cells, JC-1, flow cytometry, set 2 (AID 504569); type: functional; settings: read-out: EC50_MICROM_;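 also: potency of pump inhibitors that raise cellular JC-1 green fluorescence up to the nicardipine level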
[4] = target: T2, Apoptotic protease-activating factor 1 (Homo sapiens, UniProt O14727); assay: SAR analysis of small molecule Activators of Apaf-1 in a Fluorescent assay.; type: functional; settings: read-out: EC50_Mean;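 also: caspase-3 cleavage of fluorogenic Rh110 DEVD substrate downstream of apoptosome activation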
T2 sequence (O14727 whole entry): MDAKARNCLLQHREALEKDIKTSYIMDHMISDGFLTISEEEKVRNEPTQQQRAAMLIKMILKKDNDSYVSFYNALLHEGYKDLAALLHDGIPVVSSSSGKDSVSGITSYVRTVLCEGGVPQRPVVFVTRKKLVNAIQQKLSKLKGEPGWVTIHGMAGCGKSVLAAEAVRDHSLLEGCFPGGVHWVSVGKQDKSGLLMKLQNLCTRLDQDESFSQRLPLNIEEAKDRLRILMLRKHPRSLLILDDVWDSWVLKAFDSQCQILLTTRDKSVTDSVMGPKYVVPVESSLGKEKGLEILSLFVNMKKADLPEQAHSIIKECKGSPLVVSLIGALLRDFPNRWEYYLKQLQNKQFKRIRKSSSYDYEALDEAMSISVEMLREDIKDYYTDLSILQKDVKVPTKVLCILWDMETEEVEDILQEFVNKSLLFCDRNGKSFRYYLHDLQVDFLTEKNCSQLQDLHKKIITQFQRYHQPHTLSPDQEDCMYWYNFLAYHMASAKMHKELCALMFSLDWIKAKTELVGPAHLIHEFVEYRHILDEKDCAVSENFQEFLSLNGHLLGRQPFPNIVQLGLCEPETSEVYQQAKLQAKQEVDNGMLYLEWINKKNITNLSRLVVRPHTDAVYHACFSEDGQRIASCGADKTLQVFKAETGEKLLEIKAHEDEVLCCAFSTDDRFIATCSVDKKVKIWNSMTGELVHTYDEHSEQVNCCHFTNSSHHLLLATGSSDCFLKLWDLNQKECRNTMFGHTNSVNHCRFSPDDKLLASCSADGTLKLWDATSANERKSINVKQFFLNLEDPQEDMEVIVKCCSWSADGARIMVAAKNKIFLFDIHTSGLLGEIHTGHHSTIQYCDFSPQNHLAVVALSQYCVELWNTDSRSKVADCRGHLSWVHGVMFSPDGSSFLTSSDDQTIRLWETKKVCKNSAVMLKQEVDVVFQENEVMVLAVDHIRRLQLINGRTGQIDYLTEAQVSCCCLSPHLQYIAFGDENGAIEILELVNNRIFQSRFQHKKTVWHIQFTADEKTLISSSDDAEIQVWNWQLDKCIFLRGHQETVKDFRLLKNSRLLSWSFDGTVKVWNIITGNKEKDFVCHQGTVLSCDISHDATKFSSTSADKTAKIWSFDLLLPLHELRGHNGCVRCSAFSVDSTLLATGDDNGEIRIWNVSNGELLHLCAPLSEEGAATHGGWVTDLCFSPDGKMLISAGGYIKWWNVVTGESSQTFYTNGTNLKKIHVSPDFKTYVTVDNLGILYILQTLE

[5] = StAR promoter reporter inhibition counter-screen, dose response, counter-screen for LRH-1 inverse agonist project, cell-based, luminescence, luciferase reporter (AID 651969); type: functional
Steroidogenic factor 1 = Steroidogenic factor 1 (Homo sapiens, UniProt Q13285); assay: Counterscreen for inverse agonists of the liver receptor homolog-1 (LRH-1; NR5A2): Luminescence-based cell-based high throughput dose response assay to identify inverse agonists of the Steroidogenic Factor 1 Nuclear Receptor (SF1; NR5A1).; type: functional
Chain of Steroidogenic factor 1 (Q13285 whole entry): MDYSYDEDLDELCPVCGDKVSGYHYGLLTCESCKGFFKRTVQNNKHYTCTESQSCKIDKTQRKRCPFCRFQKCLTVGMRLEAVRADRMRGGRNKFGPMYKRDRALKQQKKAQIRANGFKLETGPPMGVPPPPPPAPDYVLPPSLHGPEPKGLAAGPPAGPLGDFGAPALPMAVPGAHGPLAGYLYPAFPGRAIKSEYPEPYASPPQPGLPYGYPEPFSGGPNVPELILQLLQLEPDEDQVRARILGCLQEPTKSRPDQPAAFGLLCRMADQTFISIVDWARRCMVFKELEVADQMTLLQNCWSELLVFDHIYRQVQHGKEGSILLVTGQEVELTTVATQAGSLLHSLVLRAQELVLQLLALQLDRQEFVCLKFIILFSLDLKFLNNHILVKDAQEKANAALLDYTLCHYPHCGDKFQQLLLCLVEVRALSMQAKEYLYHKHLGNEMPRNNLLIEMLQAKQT

[6] = target: Nuclear receptor subfamily 5 group A member 2 (Homo sapiens, UniProt O00482); type: functional, cell-based;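 also: HEK293T cells transfected with LRH-1 and a StAR promoter luciferase reporter; potency for inhibitors that lower LRH-1 driven reporter light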
Chain of Nuclear receptor subfamily 5 group A member 2 (O00482 whole entry): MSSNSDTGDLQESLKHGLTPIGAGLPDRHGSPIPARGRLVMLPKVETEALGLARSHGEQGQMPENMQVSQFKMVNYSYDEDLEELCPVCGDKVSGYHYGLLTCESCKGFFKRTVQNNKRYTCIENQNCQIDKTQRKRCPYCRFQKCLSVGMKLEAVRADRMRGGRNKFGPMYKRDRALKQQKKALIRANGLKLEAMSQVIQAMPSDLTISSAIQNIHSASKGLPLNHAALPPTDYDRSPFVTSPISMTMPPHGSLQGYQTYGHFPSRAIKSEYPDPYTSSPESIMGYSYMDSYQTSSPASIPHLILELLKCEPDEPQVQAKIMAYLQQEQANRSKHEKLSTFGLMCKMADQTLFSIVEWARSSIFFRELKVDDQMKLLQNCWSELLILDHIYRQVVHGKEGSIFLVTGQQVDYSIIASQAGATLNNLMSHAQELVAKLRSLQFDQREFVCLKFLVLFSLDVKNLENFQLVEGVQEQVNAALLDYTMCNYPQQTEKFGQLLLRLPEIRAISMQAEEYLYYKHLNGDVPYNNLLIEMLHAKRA

[7] = target: DNA repair and recombination protein RAD54-like (Homo sapiens, UniProt Q92698); assay: inhibitors of human RAD54 branch migration, confirmation, biochemical, fluorescence, cherry-picked samples, dose series (AID 651657); type: functional
Chain of DNA repair and recombination protein RAD54-like (Q92698 whole entry): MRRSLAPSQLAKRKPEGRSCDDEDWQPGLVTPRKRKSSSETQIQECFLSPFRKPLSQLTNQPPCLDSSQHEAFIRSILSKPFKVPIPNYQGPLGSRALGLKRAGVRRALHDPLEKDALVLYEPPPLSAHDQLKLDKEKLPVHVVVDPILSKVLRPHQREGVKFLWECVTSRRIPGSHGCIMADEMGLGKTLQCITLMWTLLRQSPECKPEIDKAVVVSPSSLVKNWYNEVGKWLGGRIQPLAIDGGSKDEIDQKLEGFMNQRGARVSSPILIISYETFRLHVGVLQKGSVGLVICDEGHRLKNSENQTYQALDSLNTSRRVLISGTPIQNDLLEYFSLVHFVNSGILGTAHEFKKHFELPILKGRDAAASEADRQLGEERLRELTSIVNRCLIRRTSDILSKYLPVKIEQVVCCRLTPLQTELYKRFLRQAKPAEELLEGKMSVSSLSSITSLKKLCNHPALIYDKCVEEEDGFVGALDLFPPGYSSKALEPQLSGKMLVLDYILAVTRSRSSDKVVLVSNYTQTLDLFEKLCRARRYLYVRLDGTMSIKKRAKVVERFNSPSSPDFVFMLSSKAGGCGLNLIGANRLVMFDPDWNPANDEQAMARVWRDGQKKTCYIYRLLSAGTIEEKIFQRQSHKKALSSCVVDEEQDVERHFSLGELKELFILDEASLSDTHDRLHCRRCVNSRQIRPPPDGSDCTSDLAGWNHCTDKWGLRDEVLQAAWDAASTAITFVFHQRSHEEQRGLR

[8] = target: T3, DNA repair protein RAD52 homolog (Homo sapiens, UniProt P43351); type: functional, biochemical
T3 sequence (P43351 whole entry): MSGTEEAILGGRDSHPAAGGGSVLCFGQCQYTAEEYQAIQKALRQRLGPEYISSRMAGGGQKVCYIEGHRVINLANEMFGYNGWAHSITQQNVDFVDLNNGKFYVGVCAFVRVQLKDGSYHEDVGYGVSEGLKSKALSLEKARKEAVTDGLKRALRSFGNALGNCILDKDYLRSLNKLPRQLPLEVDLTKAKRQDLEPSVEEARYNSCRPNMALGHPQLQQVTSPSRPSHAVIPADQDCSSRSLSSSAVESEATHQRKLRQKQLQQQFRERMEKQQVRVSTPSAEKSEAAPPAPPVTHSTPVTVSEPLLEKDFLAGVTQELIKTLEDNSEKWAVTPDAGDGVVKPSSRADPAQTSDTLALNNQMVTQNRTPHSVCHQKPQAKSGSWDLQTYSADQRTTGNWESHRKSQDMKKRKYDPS

[9] = target: Photoreceptor-specific nuclear receptor (Homo sapiens, UniProt Q9Y5X4); type: functional, cell-based;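 also: CHO-S cells with Gal4-NCOR and VP16-NR2E3 two-hybrid luciferase reporter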
Chain of Photoreceptor-specific nuclear receptor (Q9Y5X4 whole entry, the tested form may be a part): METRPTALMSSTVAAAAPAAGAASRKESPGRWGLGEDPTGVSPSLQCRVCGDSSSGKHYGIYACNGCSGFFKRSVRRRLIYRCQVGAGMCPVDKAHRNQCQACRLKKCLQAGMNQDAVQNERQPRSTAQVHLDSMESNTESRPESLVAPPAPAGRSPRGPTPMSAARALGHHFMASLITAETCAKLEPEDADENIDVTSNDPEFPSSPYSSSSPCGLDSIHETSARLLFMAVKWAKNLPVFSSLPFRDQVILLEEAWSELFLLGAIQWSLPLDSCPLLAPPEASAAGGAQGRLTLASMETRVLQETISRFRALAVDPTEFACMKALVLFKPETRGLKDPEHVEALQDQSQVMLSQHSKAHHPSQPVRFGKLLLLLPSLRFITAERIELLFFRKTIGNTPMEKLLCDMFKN

INS1 = assay: beta cell apoptosis inhibitors, cytokine rescue, dose response, luminescence, retest (AID 449756); type: functional, cell-based; settings: Rattus norvegicus;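 also: cell death triggered by IL-1 beta plus TNF-alpha plus IFN-gamma mixture; protective hits raise ATP signal compared with cytokine alone wells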
[10] = target: T4, Eukaryotic translation initiation factor 2-alpha kinase 3 (Homo sapiens, UniProt Q9NZJ5); assay: Counterscreen assay for PERK inhibitors: Dose response cell-based high throughput screening assay to measure inhibition of PERK at 6 hours. [Related pubchem assays: 1522, 1416 ]; type: functional
T4 sequence (Q9NZJ5 whole entry): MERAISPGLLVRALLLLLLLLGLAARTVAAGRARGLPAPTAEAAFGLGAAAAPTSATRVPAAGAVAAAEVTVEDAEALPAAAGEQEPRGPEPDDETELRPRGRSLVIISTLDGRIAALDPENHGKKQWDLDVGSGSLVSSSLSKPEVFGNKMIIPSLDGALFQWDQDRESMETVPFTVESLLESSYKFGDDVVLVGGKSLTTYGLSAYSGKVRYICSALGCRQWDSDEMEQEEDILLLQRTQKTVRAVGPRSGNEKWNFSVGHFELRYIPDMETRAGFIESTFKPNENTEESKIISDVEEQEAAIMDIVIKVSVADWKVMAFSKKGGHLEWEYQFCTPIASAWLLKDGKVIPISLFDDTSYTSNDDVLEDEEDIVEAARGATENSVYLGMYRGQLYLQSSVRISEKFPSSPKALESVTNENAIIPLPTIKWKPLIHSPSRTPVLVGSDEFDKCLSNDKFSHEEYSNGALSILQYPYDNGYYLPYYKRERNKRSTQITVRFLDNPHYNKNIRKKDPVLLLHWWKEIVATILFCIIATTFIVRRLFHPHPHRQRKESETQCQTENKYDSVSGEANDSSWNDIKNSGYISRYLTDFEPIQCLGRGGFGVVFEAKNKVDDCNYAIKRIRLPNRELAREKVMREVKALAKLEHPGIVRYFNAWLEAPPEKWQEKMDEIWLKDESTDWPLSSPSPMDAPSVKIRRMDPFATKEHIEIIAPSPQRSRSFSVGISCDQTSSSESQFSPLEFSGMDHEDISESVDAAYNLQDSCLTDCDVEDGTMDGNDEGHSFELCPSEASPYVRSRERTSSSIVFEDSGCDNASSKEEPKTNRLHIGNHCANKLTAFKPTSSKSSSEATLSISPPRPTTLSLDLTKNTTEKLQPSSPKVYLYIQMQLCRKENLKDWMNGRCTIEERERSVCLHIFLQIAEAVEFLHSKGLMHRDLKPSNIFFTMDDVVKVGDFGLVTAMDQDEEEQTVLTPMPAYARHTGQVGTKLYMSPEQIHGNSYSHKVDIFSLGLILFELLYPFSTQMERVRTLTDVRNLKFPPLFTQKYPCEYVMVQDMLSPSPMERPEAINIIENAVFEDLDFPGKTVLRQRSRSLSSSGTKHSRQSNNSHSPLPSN

[11] = target: T4, Eukaryotic translation initiation factor 2-alpha kinase 3; assay: Dose response cell-based high-throughput screening assay to measure PERK inhibition. [Related pubchem assays: 1416 ]; type: functional
Melanocortin receptor 4 = Melanocortin receptor 4 (Homo sapiens, UniProt P32245); type: functional, cell-based;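 also: Cell-based assay with luminescence read-out, confirmatory dose-response testing for agonist activity of biased ligands at MC4R; human U2OS cells with tagged receptor and beta-arrestin; potency of agonists that increase receptor coupling to beta-arrestin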
Chain of Melanocortin receptor 4 (P32245 whole entry): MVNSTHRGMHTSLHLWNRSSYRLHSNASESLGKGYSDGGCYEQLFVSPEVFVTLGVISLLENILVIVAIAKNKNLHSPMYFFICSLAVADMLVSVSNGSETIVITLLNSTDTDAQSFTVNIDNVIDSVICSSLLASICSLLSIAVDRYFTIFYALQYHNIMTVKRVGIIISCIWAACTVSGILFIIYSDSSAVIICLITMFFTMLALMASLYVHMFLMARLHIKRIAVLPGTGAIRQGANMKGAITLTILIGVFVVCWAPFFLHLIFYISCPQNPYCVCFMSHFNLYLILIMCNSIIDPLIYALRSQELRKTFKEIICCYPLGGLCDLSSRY

[12] = M. tuberculosis growth inhibition in 7H9, dose response, 7H9 media, purified and synthesized samples, set 3 (AID 504646); type: functional
[13] = ZM109 Env clade C HIV-1 fusion inhibitors, dose response, HeLa effector, CEM target cells, luciferase, cherry-pick (AID 652058); type: functional, cell-based
[14] = inhibitors of clade B AD8 Env fusion, dose response, cell-based, cherry-pick (AID 652062); type: functional;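 also: luciferase signal from cell-cell fusion driven by HIV-1 clade B AD8 Env; potency is for inhibitors of fusion seen as a drop in luminescence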
[15] = off-target signal loss in HeLa-CEM21 co-culture – HeLa F-luc CTL cells, cherry-picked, counter-screen for HIV-1 Env fusion inhibitor project, dose response (AID 652040); type: functional, cell-based;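 also: potency for signal decrease marking cytotoxic or nonspecific inhibition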
Protein skinhead-1 = target: T5, Protein skinhead-1 (Caenorhabditis elegans, UniProt P34707); type: functional
T5 sequence (P34707 whole entry): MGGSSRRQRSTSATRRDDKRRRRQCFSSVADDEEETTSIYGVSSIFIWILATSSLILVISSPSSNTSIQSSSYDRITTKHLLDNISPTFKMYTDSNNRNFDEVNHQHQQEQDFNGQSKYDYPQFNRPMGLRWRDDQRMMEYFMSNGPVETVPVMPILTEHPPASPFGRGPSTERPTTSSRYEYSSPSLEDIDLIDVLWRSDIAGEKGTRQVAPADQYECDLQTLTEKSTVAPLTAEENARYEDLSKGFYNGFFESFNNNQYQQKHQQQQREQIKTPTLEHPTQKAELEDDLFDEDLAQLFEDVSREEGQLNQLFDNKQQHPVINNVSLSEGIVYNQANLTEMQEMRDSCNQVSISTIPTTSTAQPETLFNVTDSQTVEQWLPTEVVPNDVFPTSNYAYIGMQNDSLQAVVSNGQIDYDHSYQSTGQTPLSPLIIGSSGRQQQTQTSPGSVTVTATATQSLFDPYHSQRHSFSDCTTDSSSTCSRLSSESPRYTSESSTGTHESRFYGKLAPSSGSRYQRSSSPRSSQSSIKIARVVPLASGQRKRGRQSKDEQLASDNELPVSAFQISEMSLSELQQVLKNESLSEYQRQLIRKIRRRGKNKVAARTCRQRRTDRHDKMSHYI

[16] = inhibitors of HIV Env-driven cell fusion, dose response, cherry-pick (AID 652057); type: functional, cell-based
Interleukin-8 [17] = target: T6, Interleukin-8 (Homo sapiens, UniProt P10145); assay: Dose Response confirmation of uHTS small molecule hits for cystic fibrosis induced NFkb Inhibitors in a TNFa-induced IL8 counterscreen.; type: functional; settings: read-out: IC50_Mean
T6 sequence (P10145 whole entry): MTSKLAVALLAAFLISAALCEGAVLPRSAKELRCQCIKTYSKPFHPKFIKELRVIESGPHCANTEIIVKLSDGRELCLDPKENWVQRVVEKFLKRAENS

Interleukin-8 [18] = target: T6, Interleukin-8; assay: Dose Response confirmation of uHTS small molecule hits for cystic fibrosis induced NFkb Inhibitors in a PAF-induced IL8 counterscreen.; type: functional; settings: read-out: IC50_Mean
[19] = target: Palmitoyl-protein thioesterase ABHD10, mitochondrial (Mus musculus, UniProt Q6PE15); assay: Late stage assay provider results from the probe development effort to identify inhibitors of PME-1: fluorescence-based dose response biochemical gel-based competitive Activity-Based Protein Profiling (ABPP) inhibition of ABHD10 Set 1.; type: functional
Chain of Palmitoyl-protein thioesterase ABHD10, mitochondrial (Q6PE15 whole entry): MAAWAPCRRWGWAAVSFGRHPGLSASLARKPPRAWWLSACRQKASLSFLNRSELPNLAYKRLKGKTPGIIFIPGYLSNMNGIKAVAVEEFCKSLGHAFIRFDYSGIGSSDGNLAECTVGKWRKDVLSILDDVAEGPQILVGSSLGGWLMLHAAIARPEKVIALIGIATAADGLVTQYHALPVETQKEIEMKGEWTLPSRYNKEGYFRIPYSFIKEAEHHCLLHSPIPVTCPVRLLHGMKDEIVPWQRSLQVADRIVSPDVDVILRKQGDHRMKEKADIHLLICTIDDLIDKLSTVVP

[20] = target: Mitochondrial peptide methionine sulfoxide reductase (Bos taurus, UniProt P54149); assay: Absorbance-based biochemical high throughput dose response assay for activators of Methionine sulfoxide reductase A (MsrA).; type: functional
Chain of Mitochondrial peptide methionine sulfoxide reductase (P54149 whole entry, the tested form may be a part): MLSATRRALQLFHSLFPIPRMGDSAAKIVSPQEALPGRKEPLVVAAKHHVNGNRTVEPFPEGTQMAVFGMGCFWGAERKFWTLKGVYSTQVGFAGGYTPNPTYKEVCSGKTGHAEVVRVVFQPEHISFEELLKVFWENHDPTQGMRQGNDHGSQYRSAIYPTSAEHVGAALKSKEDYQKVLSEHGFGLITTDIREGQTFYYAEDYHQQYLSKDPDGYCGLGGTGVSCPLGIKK

[21] = target: T7, Sentrin-specific protease 1 (Homo sapiens, UniProt Q9P0U3); assay: Dose response confirmation of small molecule inhibitors of the catalytic domain of the SUMO protease, SENP1 in a FRET assay.; type: functional; settings: read-out: IC50_Mean
T7 sequence (Q9P0U3 whole entry, the tested form may be a part): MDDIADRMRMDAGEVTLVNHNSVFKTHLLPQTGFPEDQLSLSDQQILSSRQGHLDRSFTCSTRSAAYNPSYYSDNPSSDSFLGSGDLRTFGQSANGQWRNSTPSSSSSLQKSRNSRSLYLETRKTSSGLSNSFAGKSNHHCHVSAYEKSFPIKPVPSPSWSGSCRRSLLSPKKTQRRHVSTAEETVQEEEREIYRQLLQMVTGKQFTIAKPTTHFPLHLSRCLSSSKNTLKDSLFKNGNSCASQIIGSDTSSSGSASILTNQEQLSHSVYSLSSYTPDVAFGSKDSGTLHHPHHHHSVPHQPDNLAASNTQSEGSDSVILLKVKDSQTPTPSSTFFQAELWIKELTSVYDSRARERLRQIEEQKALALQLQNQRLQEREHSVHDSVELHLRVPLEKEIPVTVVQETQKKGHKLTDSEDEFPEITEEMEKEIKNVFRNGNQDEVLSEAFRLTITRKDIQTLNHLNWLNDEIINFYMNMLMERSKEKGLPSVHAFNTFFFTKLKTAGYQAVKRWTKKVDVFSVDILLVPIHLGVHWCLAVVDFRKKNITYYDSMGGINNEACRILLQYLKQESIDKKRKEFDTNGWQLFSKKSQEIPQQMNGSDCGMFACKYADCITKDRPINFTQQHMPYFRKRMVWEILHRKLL

[22] = target: T7, Sentrin-specific protease 1; assay: potency of human SENP1 inhibitors, dose response, biochemical, kinetic FRET (AID 651697); type: functional; settings: read-out: IC50_Mean

COC(=O)CCc1nc2c(C#N)c(-c3ccc(Cl)cc3)ccn2n1
IC50 (cells): 5.43 µM (active) | CC50 [1]: > 100 µM (active)

Cc1ccc(-c2cc3nc(-c4ccccc4)cc(N4CCN(C(=O)c5ccoc5)CC4)n3n2)cc1
EC50 [2]: 0.81 µM (active) | EC50 [3]: 0.66 µM (active)

CCC(C)(C)c1ccc(O)c(N2CC(C(=O)O)CC2=O)c1 (configuration not stated)
EC50 [4]: > 100 µM (inactive)

COc1ccc(NC(=O)CSc2nnc3ccc(-c4cccnc4)nn23)cc1OC
IC50 [5]: 35.9 µM (inactive) | IC50 (Steroidogenic factor 1): 35.9 µM (inactive) | IC50 [6]: 35.9 µM (inactive)

CN(C)CCNC(=O)c1cccc(-c2cnc3c(NC=O)cc(-c4cccc(F)c4)cn23)c1
AC50 [7]: 22.4 µM (active) | AC50 [8]: 5.99 µM (active)

CCC1(OC(=O)CN)C(=O)OCc2c1cc1n(c2=O)Cc2cc3ccccc3nc2-1 (configuration not stated)
IC50 [9]: 1.23 µM (active) | AC50 (INS1): 2.25 µM (active) | EC50 [10]: > 55.7 µM (not active) | EC50 [11]: > 55.7 µM (not active)

CC(C)CC(N)c1csc(Nc2ccc(C(F)(F)F)cn2)n1 (configuration not stated)
EC50 (Melanocortin receptor 4): > 89.2 µM (inactive)

O=C(NCC1COc2ccccc2O1)C1CCC(CNc2c(N3CCCCC3)c(=O)c2=O)CC1 (configuration not stated)
IC50 [12]: > 25 µM (active)

CC1(Cc2ccc(Cl)cc2)C(=O)Nc2ccc(-c3cccnc3)cc21 (configuration not stated)
AC50 [13]: 4.18 µM (active) | AC50 [14]: 3.3 µM (active) | AC50 [15]: 6.69 µM (active) | IC50 (Protein skinhead-1): 19.5 µM (active) | AC50 [16]: 1.96 µM (active) | IC50 (Interleukin-8 [17]): 41.1 µM (inactive) | IC50 (Interleukin-8 [18]): 15.6 µM (inactive)

CC[C@@]1(c2ccc(Cl)cc2)C(=O)N(C(=O)OC)N1C(=O)OC
IC50 [19]: 0.103 µM (active)

CC(C)[C@H](NC(=O)c1ccccc1)C(=O)OCc1nc2scc(-c3ccccc3)c2c(=O)[nH]1
EC50 [20]: > 104 µM (inactive)

N#C/C(=C\c1cc2ccccc2nc1N1CCCCC1)C(N)=O
IC50 [21]: 25.8 µM (inactive) | IC50 [22]: 53.2 µM (inactive)
